Laboratory results published in ChEMBL document CHEMBL4616643, “Cytotoxic and anti-inflammatory effects of lignans and diterpenes from Cupressus macrocarpa” (Bioorg Med Chem Lett, 2020).
≈ marks a conversion by molar mass, not a printed value.

Key:
[1] = tested on: MDA-MB-231; test: Antiproliferative activity against human MDA-MB-231 cells assessed as inhibition of cell viability by MTT assay; type: functional, cell-based
[2] = tested on: A549; test: Antiproliferative activity against human A549 cells assessed as inhibition of cell viability by MTT assay; type: functional, cell-based
[3] = tested on: Neutrophil; test: Anti-inflammatory activity against human neutrophils assessed as inhibition of fMLF/CB-induced superoxide anion generation preincubated for 5 mins followed by fMLF addition after priming with CB for 3 mins and measured after 10 mins by spectrophotometric analysis; type: functional, cell-based
[4] = tested on: Neutrophil; test: Anti-inflammatory activity against human neutrophils assessed as inhibition in fMLF/CB-induced elastase release at 10 uM preincubated for 5 mins followed by fMLF addition after priming with CB for 3 mins and measured after 10 mins by spectrophotometric analysis relative to control; type: functional
[5] = tested on: Neutrophil; test: Anti-inflammatory activity against human neutrophils assessed as inhibition of fMLF/CB-induced superoxide anion generation at 10 uM preincubated for 5 mins followed by fMLF addition after priming with CB for 3 mins and measured after 10 mins by spectrophotometric analysis relative to control; type: functional
[6] = tested on: HepG2; test: Antiproliferative activity against human HepG2 cells assessed as inhibition of cell viability by MTT assay; type: functional, cell-based
[7] = tested on: Neutrophil; test: Anti-inflammatory activity against human neutrophils assessed as inhibition of fMLF/CB-induced elastase release preincubated for 5 mins followed by fMLF addition after priming with CB for 3 mins and measured after 10 mins by spectrophotometric analysis; type: functional, cell-based
[8] = Homo sapiens, MDA-MB-231, read-out: IC50
[9] = Homo sapiens, A549, read-out: IC50
[10] = Homo sapiens, HepG2, read-out: IC50

| Compound | IC50 [1, 8] | IC50 [2, 9] | inhibition at 10 µM [4] | inhibition at 10 µM [5] | also measured |
| --- | --- | --- | --- | --- | --- |
| C=C1CC[C@@H]2[C@](C)(CCC[C@]2(C)C(=O)O)[C@H]1CC/C(C)=C/COC(C)=O | 14.8 µg/mL (≈ 40.8 µM) | 8.9 µg/mL (≈ 24.6 µM) | – | – | – |
| C=C1CC[C@H]2[C@@](C)(CO)CCC[C@]2(C)[C@H]1CC/C(C)=C/CO | – | – | 22.3% | 50.7% | IC50 [3]: 9.6 µM |
| C=C(C=O)CC[C@H]1C(=C)CC[C@@H]2[C@]1(C)CCC[C@]2(C)C(=O)O | 14.1 µg/mL (≈ 46.3 µM) | – | – | – | – |
| C=C(CC[C@H]1C(=C)CC[C@H]2[C@@](C)(CO)CCC[C@]12C)C(=O)CO | 19.9 µg/mL (≈ 62.1 µM) | 19.8 µg/mL (≈ 61.8 µM) | – | – | – |
| C=C(C=O)CC[C@H]1C(=C)CC[C@@H]2[C@]1(C)CCC[C@@]2(C)O | 14.8 µg/mL (≈ 53.5 µM) | – | – | – | – |
| C=C1CC[C@@H]2[C@](C)(CO)CCC[C@@]2(C)[C@@H]1CCC(C)=O | – | – | 15.7% | 33.5% | – |
| COc1cc(C[C@H]2C(=O)OC[C@@H]2Cc2ccc(OC)c(OC)c2)ccc1O [ARCTIGENIN] | 1.1 µg/mL (≈ 2.95 µM) | 0.8 µg/mL (≈ 2.15 µM) | – | – | IC50 [6, 10]: 2.8 µg/mL (≈ 7.52 µM) |
| COc1cc([C@@H]2c3cc4c(cc3C[C@H]3COC(=O)[C@@H]32)OCO4)cc(OC)c1OC [DESOXYPODOPHYLLOTOXIN] | 0.07 µg/mL (≈ 0.176 µM) | 0.004 µg/mL (≈ 0.01 µM) | – | – | IC50 [6, 10]: 14.5 µg/mL (≈ 36.4 µM) |
| COc1cccc2c1C(=O)c1c(O)c3c(c(O)c1C2=O)C[C@@](O)(C(=O)CO)C[C@@H]3O[C@H]1C[C@H](N)[C@H](O)[C@H](C)O1 [DOXORUBICIN] | 0.6 µg/mL (≈ 1.1 µM) | 0.057 µg/mL (≈ 0.105 µM) | – | – | – |
| C=C1CC[C@@H]2[C@](C)(CCC[C@]2(C)C(=O)O)[C@H]1CC/C(C)=C/CO [ISOCUPRESSIC ACID] | – | – | 19.9% | 78% | IC50 ([6]; hepg2): Not Active; IC50 [3]: 4.8 µM; IC50 ([1]; mda-mb-231): Not Active; IC50 ([2]; a549): Not Active |
| COc1cc(C[C@H]2COC(=O)[C@@H]2Cc2ccc(O)c(OC)c2)ccc1O [MATAIRESINOL] | – | – | 61.9% | 95.2% | IC50 [6, 10]: 15.1 µg/mL (≈ 42.1 µM); IC50 [3]: 2.7 µM; IC50 [7]: 6.6 µM |
